According to patent US7442375B2, “Compositions of beta-defensin inducing agents” (Case Western Reserve University, priority 2002, dated 2008):
Read-outs that look alike come from different tables or passages of the source. Positions of bridges follow the written chain, without caps; N, C: chain ends. No end group written: not given here.

How the values were obtained:
[1] = system: epithelial beta defensin genes; details: appears to involve NF-kappaB/rel; cited from earlier work
hBD-3 mRNA [2] = details: 1.7 mM in culture medium, epidermal cells; cited from earlier work
hBD-2 mRNA [3] = details: 1.7 mM in culture medium, epidermal cells; cited from earlier work
CXCR4 = CXCR4 (Homo sapiens, UniProt P61073); assay: Flow cytometric analysis of co-receptor surface expression on unstimulated PBMC; assay type: cell-based; parameters: endogenous in cells; host or cells: unstimulated peripheral blood mononuclear cells (PBMC); details: 30 μg/ml, 3 h, high salt medium without FBS
Procedure: (§1) Unstimulated PBMC were treated for 3 hrs with hBD-1, -2, or -3 (30 μg/ml) in DMEM (high salt) in the absence of FBS. The CXCR4 natural ligand SDF-1AE (2 μg/ml) and the CCR5 antagonist PSC-RANTES (100 nM) were used as positive controls. CXCR4 and CCR5 surface expression was calculated using known ratios of QuantiBRITE-PE beads (Becton Dickenson) by flow cytometry. Results are the means of seven experiments±SD.
(§2) Unstimulated PBMC were treated with 30 μg/ml hBD-1, -2, or -3 in high salt medium (RPMI-1640) in the absence of FBS, 3 h. The CXCR4 natural ligand SDF-1α (R&D Systems, Minneapolis, Minn., USA) and the CCR5 antagonist PSC-RANTES were used as controls. Cells were incubated with peridinin chlorophyll protein-conjugated anti-human CD4 antibody, and either phycoerythrin (PE)-conjugated anti-human CXCR4 antibody, PE-conjugated anti-human CCR5 antibody, or PE-conjugated mouse immunoglobulin G2a (IgG2a), isotype standard (PharmMingen, San Diego, Calif., USA) [Salkowitz et al.]. Fluorescence intensity was reported as receptor density by quantitative flow cytometry (FACSCaliber; Becton Dickenson, San Jose, Calif., USA) [Iyer et al.]. Data were analyzed using CELLQuest software (Becton Dickenson).
(§3) Surface expression of CXCR4 was decreased by 51%±18% and 52%±20% (SD) respectively after incubation with 30 μg/ml of hBD-2 or hBD-3 (FIG. 5).

CCR5 = CCR5 (Homo sapiens, UniProt P51681); assay: as above; assay type: cell-based; parameters: endogenous in cells; host or cells: unstimulated peripheral blood mononuclear cells (PBMC); details: 30 μg/ml, 3 h, high salt medium without FBS
Procedure: as §1, §2, §3

HIV-1 R5 B-93US142 = assay type: cell-based
Procedure: (§4) HIV-1 strains (X4 HXB2 and R5 93US142) were incubated in 10 mM PB with increasing concentrations of hBD and used to infect GHOST X4/R5 cells. (a) Qualitative determination of HIV-1 infection, measured by GFP fluorescence, in the absence (−C) and presence (+C) of virus preincubated in 10 mM PB. (b) Anti-HIV-1 activity of hBD in GHOST X4/R5 cells using fluorescence microscopy. (c) Anti-HIV-1 activity of hBD measured by RT activity in cell-free culture supernatant, relative to the positive control (i.e., HIV-1 infection in the absence of hBD). (d) Antiretroviral activity of hBD against CXCR4- and CCR5-tropic HIV-1 strains in three different environments: DMEM+10% FBS (complete medium); DMEM alone (Medium no FBS); 10 mM PB. Viruses were incubated with 20 μg/ml of each hBD for 1 h in each condition and used to infect CEM X4/R5 cells as described. Results are representative of three independent experiments.
(§5) HIV-1 isolates were incubated with increasing concentrations (5-40 μg/ml) of hBD-1, -2, and -3, in three different conditions: high salt complete medium (RPMI-1640 or DMEM supplemented with 10% fetal bovine serum, FBS); high salt medium in the absence of FBS; or low salt medium (10 mM phosphate buffer), 37° C. for 1 h. Respective mixtures were used to infect PBMC, Ghost X4/R5 or CEM X4/R5 cells at an MOI of […]. After 2 h incubation at 37° C., 5% CO2, cells were washed three times with phosphate-buffered saline (PBS) and cultured in complete medium for 48 h. In the case of Ghost X4/R5 cells, these were washed, resuspended in PBS, and analyzed by fluorescence microscopy for GFP expression as described [Morner et al.]. Cell-free supernatants from PBMC, Ghost X4/R5 and CEM X4/R5 cultures were used to monitor infectivity by the reverse transcriptase (RT) assay [Quinones-Mateu et al.]. The 50% inhibitory concentration (IC50) of each hBD was determined using X4 or R5 HIV-1 isolates. Viruses (0.01 MOI) were incubated with increasing concentrations of hBD-1, -2, and 3 (up to 40 µg/ml) in low salt medium for 1 h and used to infect CEM X4/R5 cells. After 2 h incubation at 37° C., 5% CO2, cells were washed twice with PBS and cultured in complete medium. Supernatant samples were removed on day 5 post-infection and virus production was measured using […] the RT assay [Id.]. Cytotoxicity of hBD was quantified by determining the number of viable cells using a tetrazolium-based colorimetric (MTT) assay [Pauwels et al.].
(§6) Since the antibacterial activity of beta-defensins is sensitive to high salt and serum concentrations, the anti-HIV-1 activity of hBD was initially evaluated in a low salt, serum free environment, mimicking oral mucosal conditions [Mandel et al.]. Two HIV-1 isolates (X4 B-HXB2 and R5 B-93US142) were preincubated for 1 h with increasing concentrations of recombinant hBD-1, -2, and -3, in 10 mM phosphate buffer (PB). GHOST CCR5/CXCR4 cells were then exposed to the mixtures for 48 h in complete medium. […] When CXCR4- and CCR5-tropic HIV-1 strains were preincubated with beta-defensins in high salt medium (DMEM) supplemented with 10% FBS, no antiviral effect was detected (FIG. 4d). However, preincubation in DMEM without FBS inhibited replication of X4, but not R5, HIV-1 isolates (FIG. 4d). Under low salt conditions (i.e., 10 mM PB, no FBS) the 50% inhibitory concentration for both agents against X4 and R5 viruses ranged from 9 to 19 μg/ml and 20 to 40 μg/ml, respectively.

HIV-1 X4 B-HXB2 = assay type: cell-based
Procedure: as §4, §5, §6

hBD-2 mRNA [4] = assay: Real-time RT-PCR assay to quantify hBD mRNA in NHOEC; assay type: cell-based; details: normal human oral epithelium and cells; positive control of FIG. 3
Procedure: (§7) NHOEC monolayers were exposed to X4 HIV-1 strains B-HXB2 and B-NL4-3 or R5 strains B-93US142 and B-92US660 at an MOI of 0.01 infectious unit/cell. After 48 h, hBD-1, -2, and -3 mRNA expression was determined by real-time PCR. (a) Standard curves generated using the relationship of known number of input templates to the cycle threshold (i.e., PCR cycle number at which the mean fluorescence increases to 10 SD above baseline). Cycle threshold is directly proportional to the log of the input copy equivalents. Linear dynamic ranges and regression values are indicated. (b) Quantification of hBD mRNA in the presence and absence of HIV-1. (c) Comparison of hBD expression relative to the uninfected culture. PMA, phorbol myristate acetate, positive control. Results are representative of three independent experiments.
(§8) RNA was extracted from NHOEC monolayers post HIV-1 challenge [multiplicity of infection (MOI), 0.01 infectious unit/cell] using TRIzol according to the manufacturer's protocol (Invitrogen Life Technologies, Carlsbad, Calif., USA). Human keratin 5 RNA was used to normalize RNA content in each preparation. Intron spanning primers used and PCR conditions for these reactions have been described previously [Krisanaprakorkit et al., 1998 and 2000; Harder et al.]. Each 25-μl PCR mixture consisted of 125 ng RNA, primers (0.4 μM each), 0.4 mM dNTPs, 5 mM MgCl2, a mixture of reverse transcriptase and Taq DNA polymerase, 1 3 PCR buffer, RNase inhibitor (5 U), and SYBR Green dye diluted 1:2500 (Sigma, St. Louis, Mo., USA) as described [Weber et al.]. Standard curves were constructed using RNA generated by transcribing hBD-1, -2, or -3 plasmids using the RiboProbe in vitro transcription system (Promega, Madison, Wis., USA). Concentration of mRNAs was determined by spectrometry at 260 nm. […]
(§9) NHOEC monolayers were challenged with four different HIV-1 strains representing both viral bio-phenotypes (i.e., SI/X4, B-HXB2 and B-NL4-3; NSI/R5, B-93US142 and B-92US660) Forty-eight hours postinfection, hBD-1, -2, and -3 mRNA expression was measured by real-time PCR. […]

hBD-1 mRNA = assay: as above; assay type: cell-based; details: normal human oral epithelium and cells; positive control of FIG. 3
Procedure: as §7, §8, §9

hBD-3 mRNA [5] = assay: as above; assay type: cell-based; details: normal human oral epithelium and cells; positive control of FIG. 3
Procedure: as §7, §8, §9

[6] = virus preincubated 1 h with hBD in 10 mM PB, GHOST cells 48 h, GFP fluorescence
[7] = 20 μg/ml, preincubation in 10 mM PB

Chain of CCR5 (P51681 whole entry): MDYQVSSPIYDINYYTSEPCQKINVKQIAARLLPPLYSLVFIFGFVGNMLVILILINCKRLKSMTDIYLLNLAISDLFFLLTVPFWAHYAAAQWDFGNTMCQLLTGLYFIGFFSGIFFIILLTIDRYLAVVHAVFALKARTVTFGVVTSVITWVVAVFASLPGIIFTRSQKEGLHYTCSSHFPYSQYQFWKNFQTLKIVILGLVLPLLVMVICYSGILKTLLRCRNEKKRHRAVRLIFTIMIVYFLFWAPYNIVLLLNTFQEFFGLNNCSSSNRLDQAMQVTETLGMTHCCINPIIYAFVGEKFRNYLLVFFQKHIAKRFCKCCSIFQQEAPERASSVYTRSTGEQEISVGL
Chain of CXCR4 (P61073 whole entry): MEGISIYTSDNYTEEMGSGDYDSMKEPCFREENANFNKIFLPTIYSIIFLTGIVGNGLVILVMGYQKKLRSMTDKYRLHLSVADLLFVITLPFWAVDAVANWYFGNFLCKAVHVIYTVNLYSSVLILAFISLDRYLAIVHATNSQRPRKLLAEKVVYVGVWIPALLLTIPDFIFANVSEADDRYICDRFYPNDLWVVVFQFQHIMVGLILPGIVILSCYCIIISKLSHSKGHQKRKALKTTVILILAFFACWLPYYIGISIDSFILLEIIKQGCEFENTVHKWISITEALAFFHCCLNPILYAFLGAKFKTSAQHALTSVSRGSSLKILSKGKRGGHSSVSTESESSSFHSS

CC[C@H](C)[C@H](N)C(=O)O [isoleucine-1]
transcription of epithelial beta defensin genes [1]: can activate transcription

[Ca+2] [calcium]
HBD-3 mRNA expression (hBD-3 mRNA [2]): sufficient to induce
HBD-2 mRNA expression (hBD-2 mRNA [3]): sufficient to induce

hBD-1: Recombinant human β-defensin 1 produced from infection of Sf21 cells with baculovirus constructs (DHYNCVSSGGQCLYSACPIFTKIQGTCYRGKAKCCK; ends and bridges not checked; cysteine pairing not given here; UniProt P60022 33-68, looked up)
effect on surface expression of CXCR4 (CXCR4): did not affect
effect on CCR5 expression (CCR5): not altered
anti-HIV-1 activity (HIV-1 R5 B-93US142; [6]): no effect
anti-HIV-1 activity (HIV-1 X4 B-HXB2; [6]): no effect

GIGDPVTCLKSGAICHPVFCPRRYKQIGTCGLPGTKCCKKP (disulfide 8-37, 15-30, 20-38) [hBD-2]
inhibition (RT activity relative to positive control) (HIV-1 R5 B-93US142; [7]): 15%
inhibition (RT activity relative to positive control) (HIV-1 X4 B-HXB2; [7]): 61%

CCCCCCCCCCCCCC(=O)O[C@@H]1[C@@H](C)[C@@]2(O)[C@@H](C=C(CO)C[C@]3(O)C(=O)C(C)=C[C@@H]23)[C@@H]2C(C)(C)[C@]12OC(C)=O [phorbol myristate acetate]
HBD-2 mRNA expression (hBD-2 mRNA [4]): induces
HBD-1 mRNA expression (hBD-1 mRNA): not
HBD-3 mRNA expression (hBD-3 mRNA [5]): induces
